In the supplement of paper PMC6045584:
± gives the standard deviation of the averaged measurements.

Columns and labels:
MK2206 = compound: NC1(c2ccc(-c3nc4ccn5c(=O)[nH]nc5c4cc3-c3ccccc3)cc2)CCC1 [MK2206]; assay: surviving fraction relative to DMSO-only wells; higher = less growth inhibition; settings: exposure time: 5 days
Outline: (§1)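 Lines were retained only if, across three screens, replicate Pearson r was >0.7 and median Z' was >0.3. Viability was measured as CellTiter-Glo luminescence and reported as surviving fraction relative to the median of DMSO-only wells. Readings followed 10 minutes at room temperature, after log-phase tumour cells seeded at 250–500 per well in 384-well plates had been exposed, from 24 hours after seeding, continuously for five days to inhibitors at 0.5, 1, 5, 10, 50, 100, 500 and 1000 nM.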

MK0752 = compound: O=C(O)CC[C@H]1CC[C@@](c2cc(F)ccc2F)(S(=O)(=O)c2ccc(Cl)cc2)CC1 [MK0752]; assay: as above; settings: exposure time: 5 days
Outline: as §1

Test System	surviving fraction (MK2206; 0.5 nM)	surviving fraction (MK2206; 1 nM)	surviving fraction (MK2206; 5 nM)	surviving fraction (MK2206; 10 nM)	surviving fraction (MK2206; 50 nM)	surviving fraction (MK2206; 100 nM)	surviving fraction (MK2206; 500 nM)	surviving fraction (MK2206; 1000 nM)	surviving fraction (MK0752; 0.5 nM)	surviving fraction (MK0752; 1 nM)	surviving fraction (MK0752; 5 nM)	surviving fraction (MK0752; 10 nM)	surviving fraction (MK0752; 50 nM)	surviving fraction (MK0752; 100 nM)	surviving fraction (MK0752; 500 nM)	surviving fraction (MK0752; 1000 nM)
MDAMB361 BREAST	0.985 ± 0.072	0.922 ± 0.076	0.826 ± 0.1	0.841 ± 0.031	0.768 ± 0.11	0.608 ± 0.019	0.353 ± 0.024	0.34 ± 0.026	0.833 ± 0.044	0.904 ± 0.077	0.873 ± 0.044	0.851 ± 0.084	0.893 ± 0.06	0.91 ± 0.064	0.884 ± 0.056	0.825 ± 0.073
MDAMB436 BREAST	1.02 ± 0.14	0.932 ± 0.087	0.954 ± 0.023	0.957 ± 0.068	0.928 ± 0.023	0.924 ± 0.11	0.828 ± 0.14	0.734 ± 0.088	0.928 ± 0.052	0.895 ± 0.12	0.885 ± 0.051	0.901 ± 0.097	1.02 ± 0.13	0.881 ± 0.08	0.897 ± 0.062	0.856 ± 0.036
MDAMB453 BREAST	1.1 ± 0.093	1.08 ± 0.039	1.11 ± 0.041	1.15 ± 0.035	1.12 ± 0.072	0.846 ± 0.013	0.327 ± 0.054	0.266 ± 0.019	1.04 ± 0.078	1.06 ± 0.052	1.1 ± 0.023	1.09 ± 0.051	1.08 ± 0.049	1.14 ± 0.034	1.01 ± 0.029	1.07 ± 0.043
MDAMB468 BREAST	1.07 ± 0.052	1.1 ± 0.076	1.1 ± 0.067	1.09 ± 0.052	0.966 ± 0.06	0.939 ± 0.073	0.666 ± 0.0078	0.595 ± 0.014	1.03 ± 0.085	1.01 ± 0.074	1.1 ± 0.035	1.07 ± 0.07	1.17 ± 0.023	1.17 ± 0.028	1.07 ± 0.035	1.1 ± 0.035
MFM223 BREAST	1.14 ± 0.047	1.12 ± 0.014	1.06 ± 0.038	1.14 ± 0.16	0.793 ± 0.077	0.661 ± 0.087	0.314 ± 0.053	0.224 ± 0.011	1.21 ± 0.047	1.14 ± 0.13	1.16 ± 0.048	1.155 ± 0.0068	1.19 ± 0.03	1.23 ± 0.016	1.19 ± 0.1	1.19 ± 0.067
MG63 BONE	0.987 ± 0.01	1.06 ± 0.049	1.04 ± 0.03	1.09 ± 0.047	0.95 ± 0.016	0.961 ± 0.03	0.793 ± 0.019	0.748 ± 0.017	1.07 ± 0.047	1.07 ± 0.033	1.11 ± 0.037	1.08 ± 0.022	1.13 ± 0.055	1.1 ± 0.029	0.987 ± 0.029	0.955 ± 0.02
MHM BONE	0.981 ± 0.021	0.9797 ± 0.0065	1.01 ± 0.024	1.05 ± 0.027	0.963 ± 0.035	0.959 ± 0.026	0.89 ± 0.04	0.8973 ± 0.0085	1 ± 0.032	1.04 ± 0.029	1.06 ± 0.029	1.06 ± 0.043	1.08 ± 0.029	1.08 ± 0.013	0.975 ± 0.025	0.989 ± 0.026
NCIH441 LUNG	1.08 ± 0.034	1.18 ± 0.017	1.11 ± 0.034	1.08 ± 0.11	1.01 ± 0.059	1.07 ± 0.041	1.04 ± 0.073	0.994 ± 0.028	0.971 ± 0.21	1 ± 0.17	1.11 ± 0.057	1.08 ± 0.099	1.02 ± 0.03	1.05 ± 0.061	1.07 ± 0.11	0.974 ± 0.065
NOS1 BONE	0.882 ± 0.11	0.883 ± 0.088	1.01 ± 0.1	1.04 ± 0.11	0.807 ± 0.14	0.734 ± 0.011	0.503 ± 0.038	0.454 ± 0.053	1.08 ± 0.058	1.19 ± 0.087	1.16 ± 0.12	1.27 ± 0.068	1.16 ± 0.042	1.28 ± 0.23	1.05 ± 0.083	1.08 ± 0.032
NY BONE	1.03 ± 0.035	1.06 ± 0.024	1.05 ± 0.012	1.05 ± 0.033	0.96 ± 0.047	0.954 ± 0.023	0.882 ± 0.014	0.853 ± 0.017	1.04 ± 0.025	1.07 ± 0.03	1.11 ± 0.017	1.11 ± 0.052	1.07 ± 0.036	1.1 ± 0.02	1.02 ± 0.042	1.06 ± 0.034
OS25HAL BONE	0.998 ± 0.042	1.07 ± 0.028	1.07 ± 0.024	1.02 ± 0.026	0.813 ± 0.066	0.631 ± 0.085	0.301 ± 0.035	0.278 ± 0.021	1 ± 0.016	1.04 ± 0.029	1.022 ± 0.0072	0.99 ± 0.04	1.09 ± 0.0091	1.1 ± 0.048	1.02 ± 0.057	1.07 ± 0.02
OSHN BONE	1.08 ± 0.018	1.12 ± 0.034	1.08 ± 0.021	1.12 ± 0.052	1.05 ± 0.046	1.09 ± 0.038	1.04 ± 0.051	1.09 ± 0.086	1.12 ± 0.034	1.14 ± 0.035	1.11 ± 0.018	1.11 ± 0.018	1.11 ± 0.034	1.13 ± 0.018	1.12 ± 0.02	1.09 ± 0.017
PCI30 HEADNECK	0.999 ± 0.021	1.03 ± 0.13	1.01 ± 0.027	1.07 ± 0.035	0.939 ± 0.039	0.874 ± 0.045	0.592 ± 0.033	0.483 ± 0.017	1.02 ± 0.12	1.04 ± 0.12	1.09 ± 0.057	1.1 ± 0.05	1.06 ± 0.076	1.08 ± 0.092	1.03 ± 0.047	1.04 ± 0.018
RDES SOFT TISSUE	1.14 ± 0.04	1.27 ± 0.13	1.22 ± 0.074	1.13 ± 0.032	1.06 ± 0.062	1.17 ± 0.1	1.2 ± 0.066	1.104 ± 0.0067	1.27 ± 0.1	1.241 ± 0.0096	1.17 ± 0.1	1.21 ± 0.18	1.03 ± 0.15	1.18 ± 0.29	0.97 ± 0.097	0.998 ± 0.12
S68 BREAST	1.15 ± 0.26	0.874 ± 0.16	1.15 ± 0.22	1.14 ± 0.17	0.974 ± 0.22	0.619 ± 0.088	0.229 ± 0.028	0.156 ± 0.044	0.684 ± 0.15	0.975 ± 0.11	0.912 ± 0.11	0.96 ± 0.28	0.94 ± 0.094	0.989 ± 0.058	0.919 ± 0.19	1.04 ± 0.27
SAOS2 BONE	1.08 ± 0.055	1.13 ± 0.041	1.15 ± 0.021	1.14 ± 0.044	0.965 ± 0.063	0.925 ± 0.041	0.676 ± 0.019	0.654 ± 0.038	1.18 ± 0.028	1.2037 ± 0.00058	1.19 ± 0.12	1.22 ± 0.077	1.237 ± 0.0098	1.19 ± 0.076	1.12 ± 0.019	1.092 ± 0.0035
SCC36 HEADNECK	1.07 ± 0.037	1.11 ± 0.085	1.1 ± 0.084	1.18 ± 0.053	0.892 ± 0.025	0.936 ± 0.034	0.504 ± 0.044	0.378 ± 0.032	1.06 ± 0.15	1.13 ± 0.14	1.19 ± 0.064	0.962 ± 0.057	1.12 ± 0.035	1.03 ± 0.055	1.03 ± 0.047	0.965 ± 0.073
SCC47 HEADNECK	1.03 ± 0.051	1.06 ± 0.047	1.14 ± 0.065	1.16 ± 0.046	1.04 ± 0.046	1.07 ± 0.052	0.935 ± 0.091	0.828 ± 0.045	1.13 ± 0.12	1.17 ± 0.034	1.2 ± 0.089	1.14 ± 0.029	1.14 ± 0.064	1.18 ± 0.038	1.03 ± 0.067	1.06 ± 0.058
SCC90 HEADNECK	0.954 ± 0.027	1.01 ± 0.048	0.973 ± 0.073	1.12 ± 0.093	0.887 ± 0.011	0.935 ± 0.082	0.704 ± 0.071	0.586 ± 0.047	1.19 ± 0.014	1.11 ± 0.15	1.24 ± 0.11	1.25 ± 0.12	1.11 ± 0.064	1.13 ± 0.11	1.03 ± 0.093	1.11 ± 0.091
